# Experimental data as given in article PMC5815658 (Journal of Medicinal Chemistry, 2017).
# pIC50, pKi: −log10 of the molar value. Read-outs that look alike come from different tables or passages of the source.
# Target: T1, CRBN-DDB1 complex (Homo sapiens, UniProt Q96SW2)
# T1 construct: His6-ZZ-HRV3C (N); made in house; host or cells: Sf9 insect cells (baculovirus co-infection)
# Assay: CRBN/DDB1 fluorescence polarization competition assay
# Type: binding
# Description: CRBN/DDB1 Fluorescence Polarization Assay […]
# Unless otherwise stated, the aqueous assay buffer contained 0.02 M HEPES((4-(2-hydroxyethyl)-1-piperazineethanesulfonic acid)) pH 8.0, 0.15 M NaCl, 0.5 mM TCEP ((tris(2-carboxyethyl)phosphine)), 0.05% Tween 20. The assay was conducted using 384 well black plates (ProxiPlate F Plus, Perkin-Elmer, Massachusetts, USA).
# Plate Reader. […] Fluorescence […]
# polarization was measured in units of millipolarization (mP) and are background corrected. Data were plotted and analyzed using […]
# All experiments were performed in triplicate unless otherwise stated. Values are quoted as the geometric […]
# Each graph is a representative example of a single biological repeat unless otherwise stated.
# CRBN/DDB1 Protein Expression & Purification
# Protein expression and purification methods adapted from Lopez-Girona et al.5 Full length human CRBN (accession number NM016302) was amplified by PCR & inserted downstream of the polyhedrin promoter of a pFBDM expression vector which had been modified to introduce a N-terminal His6-ZZ-HRV3C tag. Full length human DDB1 (accession number NM001923) was amplified by PCR with primers which introduced a C-terminal StrepTag and inserted downstream of the p10 promoter of a separate pFBDM expression vector. Baculoviruses were generated according to Bac-to-Bac protocols (Invitrogen) and used to co-infect Sf9 cells grown @ 27 °C in shaker flasks using Insect-XPRESS media (Lonza). Cells were harvested 48 hours post infection and frozen. For purification, pellets were thawed & resuspended in 5 volumes of Histrap buffer A (see below) and lysed […]
# Superdex 200 (HiLoad 26/600), ResourceQ (6 mL) and finally a second Superdex 200 (HiLoad 26/600) column. All columns were from GE Healthcare and all purification steps were performed @ 4 °C. HisTrap buffer A: 50mM Tris (2-Amino-2-(hydroxymethyl)propane-1,3-diol), 500mM NaCl, 0.5mM TCEP ((tris(2-carboxyethyl)phosphine), 5% glycerol, pH 8.0. HisTrap Buffer B: + 250 mM imidazole. Superdex 200 buffer: 50mM Tris, 200mM NaCl, 0.5mM TCEP, 5% glycerol, pH 8.0. Resource Q buffer A: 50mM Tris, 0.5mM TCEP, 5% Glycerol, pH8.0. Resource Q buffer B + 1M NaCl.
# California, USA) to prepare CRBN/DDB1 concentrations from 0.1 to 500 nM in 10 µL final assay volume containing 5 nM FP- […]
# point prior to analysis. The KD was calculated using non-linear regression and a one-site specific binding model.
# Analysis of competition assay FP-probe bound fraction […]
# fb=probe bound fraction, KD=probe dissociation constant, L0=probe concentration, R0=protein concentration, Ki=ligand […]
# CRBN/DDB1 Competition Assay
# Compounds as solutions in DMSO were dispensed using an ECHO 550 Liquid Handler (Labcyte Inc).
# Tracer controls (5 nM FP-probe S18 assay buffer only) and bound tracer controls (5 nM and 80 nM CRBN/DDB1) were included on each assay plate . Plates were incubated overnight at 4 °C before warming to room temperature and fluorescence polarization measured using an EnVision plate reader (Perkin -Elmer, Massachusetts, USA). IC 50 values […]
# Table S2. CRBN/DDB1 Control Compounds
compound,measurement,setting,value
"O=C1CCC(N2C(=O)c3cccc(OCCOCCOCCN4CCN(Cc5ccc6cc(C(=O)Nc7cc(NC(=O)c8ccc9c(c8)OCCO9)ccc7Cl)ccc6n5)CC4)c3C2=O)C(=O)N1 (stereo not drawn) [PDP 16, N-(2-Chloro-5-(2,3-dihydrobenzo[b][1,4]dioxine-6-carboxamido)phenyl)-2-((4-(2-(2-(2-((2-(2,6-dioxopiperidin-3-yl)-1,3-dioxoisoindolin-4-yl)oxy)ethoxy)ethoxy)ethyl)piperazin-1-yl)methyl)quinoline-6-carboxamide]",pIC50,"CRBN/DDB1 FP IC50, single repeat N=2, best-fit value, variable slope four parameters",6.49
same,pIC50,"best-fit value, variable slope four parameters, read-out: CRBN/DDB1 FP IC50, single repeat N=1",6.15
same,pIC50,"best-fit value, variable slope four parameters, read-out: CRBN/DDB1 FP IC50, single repeat N=3",6.28
same,pKi,calculated from geometric mean CRBN-DDB1 IC50 and FP-probe KD,6.92
same,IC50,"column statistics, read-out: CRBN/DDB1 FP pIC50, mean of 3 values (unrounded) (converted)",0.493 µM
same,pIC50,"displacement of thalidomide derived fluorescent probe, geometric mean n = 3, read-out: CRBN/DDB1 FP IC50",6.31
